Experimental data taken from patent US12157741B2, “Macrocyclic inhibitors of DYRK1A” (DANA-FARBER CANCER INSTITUTE, INC., priority 2018, dated 2024).
Read-outs that look alike come from different tables or passages of the source.

Experiments:
various enzymes [1] = target: T1, various enzymes (Homo sapiens, UniProt O14733); conditions: MKK7; 1 uM
T1 sequence (O14733 1-419): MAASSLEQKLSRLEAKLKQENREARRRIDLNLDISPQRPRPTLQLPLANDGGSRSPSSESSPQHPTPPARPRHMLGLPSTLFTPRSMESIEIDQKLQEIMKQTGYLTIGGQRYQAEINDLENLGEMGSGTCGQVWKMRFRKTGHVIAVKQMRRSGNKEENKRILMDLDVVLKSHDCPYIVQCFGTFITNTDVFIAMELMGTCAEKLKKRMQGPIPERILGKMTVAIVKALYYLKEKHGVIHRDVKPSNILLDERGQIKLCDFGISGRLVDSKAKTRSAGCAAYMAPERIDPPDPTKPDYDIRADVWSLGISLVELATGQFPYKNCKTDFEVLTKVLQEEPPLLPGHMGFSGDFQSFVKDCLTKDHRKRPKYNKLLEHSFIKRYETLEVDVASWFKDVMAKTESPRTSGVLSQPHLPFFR
Protocol: (§1) Ambit profiling from Eurofins (formerly Discoverx) was conducted in accordance with the manufacturer's instructions.

various enzymes [2] = target: various enzymes (Homo sapiens, UniProt O60674); conditions: JAK2(JH1domain-catalytic); 1 uM
Protocol: as §1

various enzymes [3] = target: various enzymes (Homo sapiens, UniProt P08581, M1250T)
Protocol: as §1

various enzymes [4] = target: various enzymes (Homo sapiens, UniProt P24941); conditions: CDK2; 1 uM
Protocol: as §1

various enzymes [5] = target: T2, various enzymes (Homo sapiens, UniProt P36888); conditions: FLT3(ITD); 1 uM
T2 sequence (P36888 1-993): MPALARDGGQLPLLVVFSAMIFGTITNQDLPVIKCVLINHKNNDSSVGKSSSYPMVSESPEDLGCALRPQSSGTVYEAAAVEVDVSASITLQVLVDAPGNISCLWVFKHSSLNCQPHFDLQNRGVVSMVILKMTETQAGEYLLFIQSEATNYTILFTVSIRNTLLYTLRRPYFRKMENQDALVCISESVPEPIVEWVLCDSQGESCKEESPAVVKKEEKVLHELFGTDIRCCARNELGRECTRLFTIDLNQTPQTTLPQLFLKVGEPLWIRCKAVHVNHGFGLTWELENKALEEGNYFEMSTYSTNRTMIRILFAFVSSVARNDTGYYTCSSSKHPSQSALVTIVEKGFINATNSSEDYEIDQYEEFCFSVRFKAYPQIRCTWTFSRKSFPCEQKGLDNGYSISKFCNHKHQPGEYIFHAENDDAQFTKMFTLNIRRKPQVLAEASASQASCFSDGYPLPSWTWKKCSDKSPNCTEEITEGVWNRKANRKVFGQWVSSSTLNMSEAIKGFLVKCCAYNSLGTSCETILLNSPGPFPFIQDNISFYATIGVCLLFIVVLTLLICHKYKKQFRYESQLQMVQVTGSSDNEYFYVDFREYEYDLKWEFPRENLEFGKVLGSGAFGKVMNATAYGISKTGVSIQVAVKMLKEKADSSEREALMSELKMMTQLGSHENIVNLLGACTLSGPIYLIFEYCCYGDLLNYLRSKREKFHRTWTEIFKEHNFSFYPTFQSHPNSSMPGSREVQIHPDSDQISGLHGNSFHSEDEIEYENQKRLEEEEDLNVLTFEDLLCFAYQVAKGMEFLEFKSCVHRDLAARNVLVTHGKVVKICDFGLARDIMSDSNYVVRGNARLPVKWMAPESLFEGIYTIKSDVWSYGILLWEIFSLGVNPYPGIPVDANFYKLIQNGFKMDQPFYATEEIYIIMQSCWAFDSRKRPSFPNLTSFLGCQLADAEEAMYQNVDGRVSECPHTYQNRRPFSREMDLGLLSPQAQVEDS
Protocol: as §1

various enzymes [6] = target: various enzymes (Homo sapiens, UniProt P57059); conditions: SIK; 1 uM
Protocol: as §1

various enzymes [7] = target: various enzymes (Homo sapiens, UniProt P78368); conditions: CSNK1G2; 1 uM
Protocol: as §1

various enzymes [8] = target: various enzymes (Homo sapiens, UniProt Q06187); conditions: BTK; 1 uM
Protocol: as §1

various enzymes [9] = target: T3, various enzymes (Homo sapiens, UniProt Q12852); conditions: DLK; 1 uM
T3 sequence (Q12852 1-859): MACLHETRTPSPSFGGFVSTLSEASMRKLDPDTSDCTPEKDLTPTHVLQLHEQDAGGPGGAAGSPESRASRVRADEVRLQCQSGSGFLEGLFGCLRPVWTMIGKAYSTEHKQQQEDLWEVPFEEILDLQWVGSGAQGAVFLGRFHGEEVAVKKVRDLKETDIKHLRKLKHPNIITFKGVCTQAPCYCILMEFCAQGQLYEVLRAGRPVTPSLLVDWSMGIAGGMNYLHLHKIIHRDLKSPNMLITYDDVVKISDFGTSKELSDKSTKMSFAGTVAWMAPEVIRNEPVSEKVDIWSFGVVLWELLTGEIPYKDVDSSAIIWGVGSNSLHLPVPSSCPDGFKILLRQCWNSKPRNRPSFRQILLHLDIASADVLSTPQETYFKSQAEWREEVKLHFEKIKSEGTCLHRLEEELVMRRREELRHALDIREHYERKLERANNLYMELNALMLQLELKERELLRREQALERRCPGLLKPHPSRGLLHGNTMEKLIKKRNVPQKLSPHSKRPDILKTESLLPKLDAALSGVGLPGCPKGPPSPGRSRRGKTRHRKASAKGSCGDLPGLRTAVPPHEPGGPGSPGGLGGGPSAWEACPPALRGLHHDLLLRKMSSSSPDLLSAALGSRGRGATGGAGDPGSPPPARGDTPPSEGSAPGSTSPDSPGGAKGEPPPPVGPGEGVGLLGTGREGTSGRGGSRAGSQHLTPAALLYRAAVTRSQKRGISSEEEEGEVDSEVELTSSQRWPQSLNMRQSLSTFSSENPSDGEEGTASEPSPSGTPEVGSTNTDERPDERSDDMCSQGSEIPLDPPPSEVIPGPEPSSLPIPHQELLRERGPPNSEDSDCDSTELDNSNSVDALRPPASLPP
Protocol: as §1

various enzymes (Homo sapiens, UniProt P57059), sequence (P57059 whole entry): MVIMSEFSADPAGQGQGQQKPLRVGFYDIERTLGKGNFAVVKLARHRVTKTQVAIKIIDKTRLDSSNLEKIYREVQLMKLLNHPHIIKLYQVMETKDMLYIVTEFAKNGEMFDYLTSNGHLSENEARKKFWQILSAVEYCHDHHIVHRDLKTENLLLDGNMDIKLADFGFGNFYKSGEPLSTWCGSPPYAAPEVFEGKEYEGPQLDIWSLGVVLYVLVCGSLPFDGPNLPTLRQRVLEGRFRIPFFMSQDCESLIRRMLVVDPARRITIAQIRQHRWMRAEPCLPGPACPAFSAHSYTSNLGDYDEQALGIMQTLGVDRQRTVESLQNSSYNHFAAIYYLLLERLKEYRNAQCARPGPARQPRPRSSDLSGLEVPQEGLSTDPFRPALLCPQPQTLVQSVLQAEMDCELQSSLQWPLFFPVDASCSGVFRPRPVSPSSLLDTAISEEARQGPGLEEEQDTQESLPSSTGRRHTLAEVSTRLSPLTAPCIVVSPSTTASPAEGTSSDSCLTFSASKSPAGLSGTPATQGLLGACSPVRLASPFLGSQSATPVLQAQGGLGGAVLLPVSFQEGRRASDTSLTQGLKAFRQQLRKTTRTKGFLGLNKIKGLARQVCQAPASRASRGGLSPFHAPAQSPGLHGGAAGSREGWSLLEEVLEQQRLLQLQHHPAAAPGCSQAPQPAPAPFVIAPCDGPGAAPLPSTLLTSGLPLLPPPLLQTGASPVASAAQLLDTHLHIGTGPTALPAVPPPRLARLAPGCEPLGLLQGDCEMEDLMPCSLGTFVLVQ
various enzymes (Homo sapiens, UniProt P78368), sequence (P78368 whole entry): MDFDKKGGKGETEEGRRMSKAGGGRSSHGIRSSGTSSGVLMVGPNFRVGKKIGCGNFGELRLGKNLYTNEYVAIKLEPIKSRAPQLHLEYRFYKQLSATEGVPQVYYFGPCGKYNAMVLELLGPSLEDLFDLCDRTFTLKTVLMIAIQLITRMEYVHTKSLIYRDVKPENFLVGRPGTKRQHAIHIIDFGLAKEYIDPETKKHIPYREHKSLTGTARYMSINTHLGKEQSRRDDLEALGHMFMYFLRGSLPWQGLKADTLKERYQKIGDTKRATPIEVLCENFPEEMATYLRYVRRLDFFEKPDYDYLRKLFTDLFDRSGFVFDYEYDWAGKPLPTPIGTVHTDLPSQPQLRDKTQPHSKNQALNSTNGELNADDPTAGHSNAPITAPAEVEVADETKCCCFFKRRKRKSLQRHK
various enzymes (Homo sapiens, UniProt O60674), sequence (O60674 whole entry): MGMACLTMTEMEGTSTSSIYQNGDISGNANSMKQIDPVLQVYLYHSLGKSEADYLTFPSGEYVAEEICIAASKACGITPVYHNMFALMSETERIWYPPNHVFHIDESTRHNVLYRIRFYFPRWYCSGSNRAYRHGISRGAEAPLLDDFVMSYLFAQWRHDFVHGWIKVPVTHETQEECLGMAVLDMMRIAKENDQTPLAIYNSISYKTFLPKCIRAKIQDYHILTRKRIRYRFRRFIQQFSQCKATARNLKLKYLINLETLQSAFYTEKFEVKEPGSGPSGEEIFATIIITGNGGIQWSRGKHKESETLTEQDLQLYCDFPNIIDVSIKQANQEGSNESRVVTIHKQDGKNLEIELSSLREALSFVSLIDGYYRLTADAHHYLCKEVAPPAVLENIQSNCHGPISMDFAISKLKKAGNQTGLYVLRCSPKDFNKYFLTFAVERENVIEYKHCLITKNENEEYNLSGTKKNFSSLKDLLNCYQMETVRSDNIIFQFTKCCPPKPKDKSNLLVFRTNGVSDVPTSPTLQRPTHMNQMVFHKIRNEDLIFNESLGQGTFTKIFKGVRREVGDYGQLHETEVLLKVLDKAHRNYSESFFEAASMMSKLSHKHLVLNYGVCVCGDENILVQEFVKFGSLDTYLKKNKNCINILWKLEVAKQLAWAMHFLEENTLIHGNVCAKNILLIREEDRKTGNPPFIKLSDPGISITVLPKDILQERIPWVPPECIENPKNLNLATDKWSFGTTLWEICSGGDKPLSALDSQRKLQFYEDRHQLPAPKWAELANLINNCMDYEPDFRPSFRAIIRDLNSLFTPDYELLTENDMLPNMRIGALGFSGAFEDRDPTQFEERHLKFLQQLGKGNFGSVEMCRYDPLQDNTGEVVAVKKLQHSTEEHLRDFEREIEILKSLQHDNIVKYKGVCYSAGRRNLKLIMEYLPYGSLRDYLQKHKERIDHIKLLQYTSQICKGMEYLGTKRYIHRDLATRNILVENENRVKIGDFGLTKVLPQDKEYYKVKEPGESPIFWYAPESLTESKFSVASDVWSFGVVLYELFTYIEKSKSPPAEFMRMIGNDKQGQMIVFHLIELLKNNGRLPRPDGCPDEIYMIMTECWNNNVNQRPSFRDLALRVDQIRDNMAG
various enzymes (Homo sapiens, UniProt Q06187), sequence (Q06187 whole entry): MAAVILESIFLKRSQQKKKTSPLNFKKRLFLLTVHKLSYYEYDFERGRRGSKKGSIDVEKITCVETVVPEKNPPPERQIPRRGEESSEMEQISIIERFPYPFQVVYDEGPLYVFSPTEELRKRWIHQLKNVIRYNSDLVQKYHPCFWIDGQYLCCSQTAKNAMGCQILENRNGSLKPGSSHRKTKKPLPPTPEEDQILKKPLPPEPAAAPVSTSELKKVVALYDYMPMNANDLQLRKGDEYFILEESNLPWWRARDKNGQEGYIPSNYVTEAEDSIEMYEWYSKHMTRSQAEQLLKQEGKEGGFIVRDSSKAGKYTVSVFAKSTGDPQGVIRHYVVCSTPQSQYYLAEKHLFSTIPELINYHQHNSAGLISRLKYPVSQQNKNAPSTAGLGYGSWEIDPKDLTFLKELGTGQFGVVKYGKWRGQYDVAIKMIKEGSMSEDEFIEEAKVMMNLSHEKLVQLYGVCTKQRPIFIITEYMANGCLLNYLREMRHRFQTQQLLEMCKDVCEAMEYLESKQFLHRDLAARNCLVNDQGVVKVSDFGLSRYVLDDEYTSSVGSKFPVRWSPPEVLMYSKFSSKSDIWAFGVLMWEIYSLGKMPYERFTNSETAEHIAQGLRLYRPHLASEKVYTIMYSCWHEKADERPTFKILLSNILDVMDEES

CN1Cc2nn(C)cc2-c2cnc3[nH]cc(c3c2)-c2cnn(c2)CCCC1=O [Compound 41, (Z)-31,5-dimethyl-11H,21H,31H-5-aza-2(3,5)-pyrrolo[2,3-b]pyridina-1(4,1),3(4,3)-dipyrazolacyclononaphan-6-one]
Ambit profiling (various enzymes [1]): 28
Ambit profiling (various enzymes [2]): 0.5
Ambit profiling (various enzymes [3]; MET(M1250T), 1 uM): 20
Ambit profiling (various enzymes [4]): 55
Ambit profiling (various enzymes [5]): 0.15
Ambit profiling (various enzymes [6]): 84
Ambit profiling (various enzymes [7]): 100
Ambit profiling (various enzymes [8]): 61
Ambit profiling (various enzymes [9]): 23

CN1Cc2nn(C)c(C#N)c2-c2cnc3[nH]cc(c3c2)-c2cn(nc2C(F)(F)F)CCCC1=O [Compound 48, (Z)-31,5-dimethyl-6-oxo-13-(trifluoromethyl)-11H,21H,31H-5-aza-2(3,5)-pyrrolo[2,3-b]pyridina-1(4,1),3(4,3)-dipyrazolacyclononaphane-35-carbonitrile]
Ambit profiling (various enzymes [1]): 99
Ambit profiling (various enzymes [2]): 81
Ambit profiling (various enzymes [3]): 75
Ambit profiling (various enzymes [4]): 91
Ambit profiling (various enzymes [5]): 21
Ambit profiling (various enzymes [6]): 59
Ambit profiling (various enzymes [7]): 100
Ambit profiling (various enzymes [8]): 97
Ambit profiling (various enzymes [9]): 100
